# Experimental data reported in patent publication US4603144A, “Kojic acid ether-ester derivatives” (G. D. Searle & Co., priority 1984, dated 1986).
# Target: T1, Human Leukocyte Elastase (HLE) (Homo sapiens, UniProt P08246)
# T1 sequence (P08246 30-267): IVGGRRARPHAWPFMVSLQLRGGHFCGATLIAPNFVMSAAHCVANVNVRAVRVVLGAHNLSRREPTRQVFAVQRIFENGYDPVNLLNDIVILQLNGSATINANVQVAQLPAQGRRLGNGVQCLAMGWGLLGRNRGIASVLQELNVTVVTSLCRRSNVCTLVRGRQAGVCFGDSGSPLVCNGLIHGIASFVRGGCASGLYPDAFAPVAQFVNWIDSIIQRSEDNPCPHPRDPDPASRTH
# Assay: Inhibition of Human Leukocyte Elastase (HLE); hydrolysis of Methoxy-succinyl-Alanyl-Alanyl-Prolyl-Valyl-nitroanilide
# Type: biochemical
# Settings: for inhibition at 20 µM: 2.0 × 10^-5 Molar; for inhibition at 10 µM: 1.0 × 10^-5 Molar; for inhibition at 0.2 µM: 2.0 × 10^-7 Molar; for inhibition at 0.05 µM: 5.0 × 10^-8 Molar; for inhibition at 1 µM: 1.0 × 10^-6 Molar; for inhibition at 5 µM: 5.0 × 10^-6 Molar
# Experimental: Inhibition of Human Leukocyte Elastase (HLE)
# This test measures the rate of hydrolysis of Methoxy-succinyl-Alanyl-Alanyl-Prolyl-Valyl-nitroanilide by HLE in the presence and absence of the compound to be tested. The procedure used is as follows. The following stock solutions are prepared.
# 1. a saline solution of HLE prepared from a composition containing 10% HLE with the remainder being sodium acetate (300 micrograms per ml) wherein the concentration was adjusted to give a change in absorption of 0.12 od units per minute in the assay in the absence derivative,
# 2. a dimethylsulfoxide solution of the nitroanilide peptide (2m mole),
# 3. tris-HCl buffer (0.2M,pH 8.0) and
# 4. a dimethylsulfoxide solution of the derivative to be tested at 20 times the desired final concentration.
# The test hydrolysis solution was then prepared by adding 850 microliters buffer, 50 microliters derivative solution, 50 microliters peptide solution to a 1 cm. semi-micro cuvette. The cuvette was capped, slightly shaken and placed in the light chamber of a recording colorimeter where the increase in absorption at 410 nm. due to liberated nitroaniline was measured. Using this procedure, the one minute change in absorption of the test sample containing derivative was compared to the change in absorption in the absence of derivative. A 20% or more decrease in the rate of absorption was interpreted as a positive inhibition.
Compound,inhibition at 20 µM,inhibition at 10 µM,inhibition at 0.2 µM,inhibition at 0.05 µM,inhibition at 1 µM,inhibition at 5 µM
"CCCCCCCCCCCCCCCCCCOCc1cc(=O)c(OCc2ccccc2)co1 [Example 11, 2-[(octadecyloxy)methyl]-5-(phenylmethoxy)-4Hpyran-4-one]",24%,,,,,
"CCCCCCCCCCCCCCOCc1cc(=O)c(O)co1 [Example 12, 5-hydroxy-2-[(tetradecyloxy)methyl]-4Hpyran-4-one]",48%,34%,,,,
"CCCCCCCCCCCCCCCCOCc1cc(=O)c(O)co1 [Example 13, 5-hydroxy-2-[(hexadecyloxy)methyl]-4Hpyran-4-one]",23%,,,,,
"CCCCCCCCCCCCCCCCCCOCc1cc(=O)c(O)co1 [Example 14, 5-hydroxy-2-[(octadecyloxy)methyl]-4Hpyran-4-one]",50%,46%,,,,
"CCCCCCCCCCCCCCOCc1cc(=O)c(OC(=O)C(C)(C)C)co1 [Example 15, 4-oxo-2-[(tetradecyloxy)methyl]-4H pyran-5-yl-2,2-dimethylpropanoate]",88%,81%,60%,38%,,
"CCCCCCCCCCCCCCCCOCc1cc(=O)c(OC(=O)C(C)(C)C)co1 [Example 16, 2-[(hexadecyloxy)methyl]-4-oxo-4H pyran-5-yl-2,2-dimethylpropanoate]",89%,87%,52%,27%,69%,
"CCCCCCCCCCCCCCCCOCc1cc(=O)c(OC(=O)C(C)C)co1 [Example 17, 2-[(hexadecyloxy)methyl]-4-oxo-4H pyran-5-yl-2-methylpropanoate]",,,81%,61%,88%,
"CCCCCCCCCCCCCCCCOCc1cc(=O)c(OC(=O)C(C)C(C)C)co1 (centres unmarked) [Example 18, 2-[(hexadecyloxy)methyl]-4-oxo-4H pyran-5-yl-2,3-dimethylbutanoate]",59%,48%,,,,
"CCCCCCCCCCCCCCCCOCc1cc(=O)c(OC(=O)CC(C)C)co1 [Example 19, 2-[(hexadecyloxy)methyl]-4-oxo-4H pyran-5-yl-3-methylbutansate]",67%,52%,,,,
"CCCCCCCCCCCCCCCCCCOCc1cc(=O)c(OC(=O)C(C)(C)C)co1 [Example 20, 2-[(octadecyloxy)methyl] -4-oxo-4Hpyran-5-yl-2,2-dimethylpropanoate]",66%,73%,,,,69%
"CCCCCCCCCCCCCCCCOc1coc(COC2CCCCO2)cc1=O (centres unmarked) [Example 21, 5-Hexadecyloxy-2-tetrahydropyrany/oxymethyl-4H pyran-4-one]",23%,,,,,
"CCCCCCCCCCCCCCCCOc1coc(COC(=O)C(C)(C)C)cc1=O [Example 23, 5-Hexadecyloxy-4-oxo-4Hpyran-2-hydroxymethyl-2,2-dimethylpropanoate]",65%,62%,,,,36%
"CCCCCCCCCCCCCCCCOc1coc(C(=O)O)cc1=O [Example 24, 5-Hexadecyloxy-2-carboxyl-4Hpyran-4-one]",86%,83%,,,,84%
